Source: patent US20050239756A1, “Methods of treating various vitamin D metabolism conditions with 1alpha-hydroxyvitamin D2” (Bone Care International, Inc., priority 2004, published 2005)
“And” between values parts separate entries of the source, which are not always exact repeats. Identical values can stand only once.

Legend:
PTH levels = conditions: Malluche et al., Nephrol. Dial. Transplant., 2004; cited from earlier work
[1] = tested on: postmenopausal osteoporotic outpatients; assay: 104-week placebo-controlled study of oral 1α-(OH)D2 in postmenopausal osteoporotic outpatients (Example 1); type: in vivo, human
Description: 1α-(OH)D2 was used to treat osteoporosis was confirmed in a study involving 60 postmenopausal osteoporotic outpatients. […] Exclusion criteria encompassed significant medical disorders and recent use of medications known to affect bone or calcium metabolism. On admission to the study, each subject was assigned at random to one of two treatment groups; one group received up to a 104-week course of therapy with 1α-(OH)D2; the other received only placebo therapy. All subjects received instruction on selecting a daily diet containing 700-900 mg of calcium and were advised to adhere to this diet over the course of the study. Compliance to the diet was verified at regular intervals by 24-hour food records and by interviews with each subject. During the treatment period, subjects from one group orally self-administered 1α-(OH)D2 at an initial dosage of 1.0 μg/day for one week, and increased the dosage to 2.0, 3.0, 4.0 μg/day in each of the following weeks, to a maximum dosage of 5.0 μg/day. The dosage for any given subject was increased in this way until the rate of urinary calcium excretion was elevated to approximately 275-300 mg/24 hours, at which point the subject held the dosage constant at the highest level attained. Subjects from the second group self-administered a matching placebo medication every day, titrating the apparent dosage upwards in the same manner as subjects being treated with 1α-(OH)D2. Spinal and femoral neck BMD were measured in all subjects by DEXA at the beginning of the study, and at six-month intervals thereafter. Intestinal calcium absorption was estimated in all subjects by a single isotope technique at the beginning of the study, and at 12-month intervals. Serum levels of vitamin D metabolites were determined by radioreceptor binding assays at baseline and at six-month intervals. Serum osteocalcin, serum PTH and urine hydroxyproline also were determined at baseline and at six-month intervals. Other blood and urine chemistries were monitored at regular intervals during the treatment period. These chemistries included serum calcium, serum ionized calcium, urine calcium, blood urea nitrogen, serum creatinine and creatinine clearance. Kidney-ureter-bladder (KUB) x-rays were obtained at baseline and at 12-month intervals thereafter.

[2] = tested on: subjects with chronic kidney disease with elevated blood PTH; assay: 24-week double-blinded placebo-controlled study of oral doxercalciferol in secondary hyperparathyroidism with mild to moderate chronic kidney disease (Example 2); type: in vivo, human; conditions: for Mean (±SE) plasma iPTH: baseline 219.1±22.3 pg/mL
Description: 1α-(OH)D2 (doxercalciferol) was used as a treatment for hyperparathyroidism associated with chronic kidney disease was confirmed in a study involving 55 adults, ages 18-85 years, with mild to moderate chronic kidney disease. The subjects had plasma intact parathyroid hormone (iPTH) levels above 85 pg/mL and completed an eight-week baseline period and then 24 weeks of therapy with either orally administered doxercalciferol or placebo. The initial dose of test drug was 2 capsules daily (totaling 1.0 μg for subjects randomized to doxercalciferol treatment), with increases in steps of one capsule per day permitted after four weeks. The maximum dosage was limited to 10 capsules per day (5.0 μg/day of doxercalciferol). Subjects were monitored at regular intervals for plasma iPTH, serum calcium and phosphorus, 24-hour and fasting urinary calcium, bone-specific serum markers, plasma total 1α,25-(OH)2D, and routine blood chemistries and hematologies. Glomerular filtration rate (GFR) was measured prior to beginning the treatment and at study termination. No physical or biochemical differences were detectable between the two treatment groups prior to starting treatment. […] On enrollment, each subject was assigned, at random, in double-blinded fashion, to one of two treatment groups. Both treatment groups completed an 8-week Baseline Period (Weeks −8 to 0) and then underwent therapy with either orally administered doxercalciferol or placebo for a 24-week Treatment Period (Weeks 1 to 24). Irrespective of treatment group assignment, each subject discontinued any 1α,25-dihydroxivitamin D3 (1α,25(OH)2D3) therapy for the duration of the study. Throughout the Baseline Period and the subsequent Treatment Period, subjects were monitored at regular intervals for plasma iPTH, serum calcium, serum phosphorus, and 24-hour and fasting urinary calcium, phosphorus and creatinine. Routine blood chemistries and hematologies, bone-specific serum markers, and plasma total 1α,25(OH)2D were also monitored at selected intervals. Glomerular filtration rate (GFR) was measured prior to beginning treatment and at termination. Subjects qualified for inclusion in the Baseline Period if they were aged 18 to 85 years, had mild to moderate CR1 with serum creatinine between 1.8 to 5.0 mgldL (for men) or 1.6 to 4.0 mg/dL (for women), and had elevated plasma iPTH values (>85 pg/mL). Subjects receiving ongoing treatment with estrogen were required to maintain the same estrogen dosing regimen throughout the study. Subjects who began dialysis treatment or underwent renal transplantation were required to prematurely terminate participation. […] Patients were also excluded who had hypercalcemia, hyperthyroidism, sarcoidosis, malignancy requiring chemotherapy, hormonal therapy and/or radiation treatment, chronic gastrointestinal disease (i.e., malabsorption, surgery affecting absorption, and chronic ulcerative colitis), hepatic impairment, or any other condition which may have put the patient at undue risk. […] The two studies were conducted under double-blind conditions in each geographical region. Assignments of subjects to the two treatment groups were made randomly, by geographical region, in order of enrollment. The randomization was accomplished in subgroups of size 10, 5 subjects assigned to each of the two treatment groups. The randomization was performed by an independent statistician using the Statistical Analysis System (SAS). 1α-hydroxyvitamin D2 (available as doxercalciferol from Bone Care International) was formulated for oral administration as soft elastic gelatin capsules in units of 0.5 mcg/capsule. […] The initial dose of test drug (doxercalciferol or placebo) was 2 capsules (totaling a 1.0 μg dose for subjects receiving doxercalciferol) every day before breakfast. This dosage was increased as necessary at monthly intervals, to suppress plasma iPTH levels by at least 30% from baseline. […]

[3] = tested on: subjects with low serum 1,25-dihydroxyvitamin D; assay: 24-week oral doxercalciferol therapy in subjects with low serum 1,25-dihydroxyvitamin D (Example 4); type: in vivo, human
Experimental: (§1) 1α-(OH)D2 (doxercalciferol) is used as a treatment for subjects with low serum 1,25-dihydroxyvitamin D in a study involving 50 adults, ages 18-85 years. The subjects have serum 1,25-dihydroxyvitamin D levels below 20 pg/dL and complete an eight-week baseline period and then 24 weeks of therapy with orally administered doxercalciferol. The initial dose of 1α-(OH)D2 is 2 capsules daily (totaling 1.0 μg), with increases in steps of one capsule per day permitted after four weeks. The maximum dosage is limited to 10 capsules per day (5.0 μg/day of doxercalciferol). Subjects are monitored at regular intervals for plasma iPTH, serum calcium and phosphorus, 24-hour and fasting urinary calcium, bone-specific serum markers, plasma total 1α,25-(OH)2D, and routine blood chemistries and hematologies.

[4] = tested on: subjects with low serum calcium; assay: 24-week oral doxercalciferol therapy in subjects with low serum calcium (Example 3); type: in vivo, human
Experimental: as §1, with “calcium” for “1,25-dihydroxyvitamin D”, “8.6 mg/dL” for “20 pg/dL”

[5] = Treatment Period, active treatment
[6] = after the 24 week treatment period

SMILES: C=C1/C(=C\C=C2/CCC[C@]3(C)[C@@H]([C@H](C)CCCC(C)(C)O)CC[C@@H]23)C[C@@H](O)C[C@@H]1O [calcitriol, 1,25-dihydroxyvitamin D3]
- Effect of treatment on PTH levels (PTH levels): over suppression of PTH levels

SMILES: C=C1/C(=C\C=C2/CCC[C@]3(C)[C@@H]([C@H](C)/C=C/[C@H](C)C(C)C)CC[C@@H]23)C[C@@H](O)C[C@@H]1O [1α-(OH)D2, 1α-hydroxyvitamin D2]
- Increase in intestinal absorption of orally administered Ca relative to placebo control ([1]; after 52 weeks, P<0.001): 40%
- Increase in intestinal absorption of orally administered Ca relative to placebo control ([1]; after 104 weeks, P<0.5): 29%
- Decrease in serum levels of PTH relative to placebo therapy ([1]; at 1-4 weeks (so in the source)): 25%
- Increase in mean serum total 1α,25-(OH)2D3 relative to placebo therapy ([1]; at 24 months, P<0.01): 49%
- Decrease in serum levels of PTH relative to placebo therapy ([1]; at 52 weeks): 17%
- Increase in mean serum total 1α,25-(OH)2D3 relative to placebo therapy ([1]; at six months, P<0.05): 21%
- Mean urine calcium during initial titration period ([1]; dosage titrated 1.0 to 5.0 μg/day): increased during the initial titration period in a dose-response fashion
- Serum 1α,25-(OH)2D2 ([1]; during treatment): dramatic rise
- Mild hypercalcemia (10.2-10.4 mg/dL), subjects affected ([1]; first year): four
- Moderate hypercalcemia (10.4-10.8 mg/dL), subjects affected ([1]; over the course of the study, prescribed dosages 5.0 μg/day): two
- Hypercalciuria observed occasionally, subjects affected ([1]; over the two-year study): 17 subjects
- Marked hypercalcemia (>10.8 mg/dL), subjects affected ([1]; prescribed dosage 5.0 μg/day, in association with an intercurrent illness): one
- Mild hypercalcemia (10.2-10.4 mg/dL), subjects affected ([1]; second year): two
- Bone mineral density (BMD) in the L2-L4 vertebrae ([1]; two-year study, decreased with placebo, difference P<0.05 after 24 months): progressively increased
- Renal function and rates of adverse events vs placebo ([2]; 24 weeks): No differences between treatment groups
- Subjects achieving plasma iPTH suppression of ≧30% from baseline (percentage) ([2]; 27 subjects in the active group, mean of Weeks 20 and 24, placebo 7.1%): 74%
- Episodes of hypercalciuria (24-hour urine calcium >200 mg or fasting urine Ca/Cr ratio above 0.25) ([2]; Treatment Period): No episodes
- Episodes of hyperphosphatemia (serum phosphorus >5.0 mg/dL) [2, 5]: 15 episodes
- Subjects with hyperphosphatemia (serum phosphorus >5.0 mg/dL) [2, 5]: 10 subjects
- Mean serum osteocalcin, upward trend from baseline ([2]; Week 4): ~10%
- Mean (±SE) plasma iPTH ([2]; Week 4): 165 ± 15 pg/mL
- Mean reduction of plasma iPTH from baseline ([2]; Week 8): 26.3%
- Mean serum osteocalcin, decline from baseline ([2]; Week 24): about 20%
- Mean (±SE) serum phosphorus ([2]; Week 24, baseline 4.02±0.15 mg/dL): 4.27 ± 0.13 mg/dL
- Mean (±SE) serum calcium ([2]; Week 24, baseline 8.74±0.12 mg/dL): 9.14 ± 0.11 mg/dL
- Mean (±SE) plasma iPTH ([2]; Week 24, p<0.001 vs. baseline): 118 ± 17 pg/mL
- Mean reduction (suppression) of plasma iPTH from baseline ([2]; Week 24, p<0.001): 45.6%
- Mean alkaline phosphatase ([2]; Weeks 16 and 24, p<0.05): reduced significantly from baseline
- Mean serum total 1,25-dihydroxyvitamin D levels ([2]; all treatment weeks, did not differ significantly between groups): increased significantly from baseline
- Mean reduction in serum bone-specific alkaline phosphatase (BSAP) from baseline ([2]; by Week 16): 19.7±3.7%
- Mean reduction in serum bone-specific alkaline phosphatase (BSAP) from baseline ([2]; by Week 24): 27.9±4.6%
- Rise in mean serum 1,25-dihydroxyvitamin D from baseline levels ([2]; during treatment, no change in placebo group): ~50%
- iPTH increase in an individual subject ([2]; end of treatment, one subject): 3.9%
- iPTH reduction in individual subjects not reaching ≧30% suppression ([2]; end of treatment, single subjects, listed as doxercalciferol): 24.0% and 24.2% and 19.6%
- Duration of hypercalcemia episode ([2]; episode with onset in Week 4): 5 weeks
- Maximum serum calcium recorded during hypercalcemia episode ([2]; episode with onset in Week 4, one subject): 10.9 mg/dL
- Duration of hypercalcemia episode ([2]; episode with onset in Week 16): 8 weeks
- Maximum serum calcium recorded during hypercalcemia episode ([2]; episode with onset in Week 16, one subject): 11.0 mg/dL
- Episodes of hypercalcemia (corrected serum calcium >10.7 mg/dL) ([2]; in one subject, onsets Week 4 and Week 16): Two
- Subjects achieving plasma iPTH suppression of ≧30% from baseline (number) ([2]; of 27 subjects in the active group, mean of Weeks 20 and 24): 20 subjects
- Serum calcium in the excepted subject during treatment ([2]; one subject with pre-treatment serum calcium as high as 10.7 mg/dL): 11.0 mg/dL
- iPTH increase in a subject at discontinuation ([2]; one subject, discontinued in Week 5): 22.8%
- Plasma iPTH suppression from baseline in a subject at discontinuation ([2]; one subject, discontinued in Week 8): 27.9%
- Plasma iPTH suppression in a subject at discontinuation ([2]; one subject, discontinued in Week 17): 44.4%
- Serum C- and N-telopeptides and bone-specific alkaline phosphate ([2]; relative to baseline and placebo treatment, p<0.01): decreased
- Average serum phosphorous levels [3, 6]: 2.4 to 5 mg/dL
- Serum bone-specific markers alkaline phosphatase, N- and C-telopeptides, and osteocalcin [3, 6]: average normal levels
- Serum 1,25-dihydroxyvitamin D levels between doses ([3]; between doses of 1α-(OH)D2): within the patients normal historical physiological range
- Average serum phosphorous levels [4, 6]: 2.4 to 5 mg/dL
- Serum bone-specific markers alkaline phosphatase, N- and C-telopeptides, and osteocalcin [4, 6]: average normal levels
- Serum 1,25-dihydroxyvitamin D levels between doses ([4]; between doses of 1α-(OH)D2): within the patients normal historical physiological range
